Results reported in ChEMBL document CHEMBL1909046, “DrugMatrix in vitro pharmacology data”.

Experiments:
[1] = target: Beta-3 adrenergic receptor (Homo sapiens, UniProt P13945); experiment: DRUGMATRIX: Adrenergic beta3 radioligand binding (ligand: [125I] Cyanopindolol); format: cell membranes, HEK293, Membrane; conditions: hek293; Not Active = under 50% inhibition at 10 µM
[2] = DRUGMATRIX: Glutamate, Kainate radioligand binding (ligand: [3H] Kainic acid); format: cell membranes, Rattus norvegicus, Wistar, Brain, Membrane; conditions: Not Active = under 50% inhibition at 10 µM
[3] = target: T1, Muscarinic acetylcholine receptor M2 (Homo sapiens, UniProt P08172); format: cell membranes, CHO-K1, Membrane; conditions: cho-k1; note: in other assays of this panel Not Active means under 50% inhibition at 10 µM
T1 sequence (P08172 whole entry): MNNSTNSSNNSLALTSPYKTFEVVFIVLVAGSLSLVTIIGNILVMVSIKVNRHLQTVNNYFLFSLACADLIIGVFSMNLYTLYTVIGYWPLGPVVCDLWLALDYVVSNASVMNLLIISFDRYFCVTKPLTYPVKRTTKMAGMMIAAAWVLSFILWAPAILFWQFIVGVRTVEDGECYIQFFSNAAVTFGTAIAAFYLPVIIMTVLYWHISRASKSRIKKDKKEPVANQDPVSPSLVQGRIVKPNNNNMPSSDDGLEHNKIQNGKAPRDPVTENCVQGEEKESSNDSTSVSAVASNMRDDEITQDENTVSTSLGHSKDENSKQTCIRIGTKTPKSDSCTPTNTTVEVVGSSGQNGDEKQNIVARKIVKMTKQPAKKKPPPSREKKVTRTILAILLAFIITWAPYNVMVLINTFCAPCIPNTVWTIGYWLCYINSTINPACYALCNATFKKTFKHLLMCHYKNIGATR

Carbonic anhydrase 2 = Carbonic anhydrase 2 (Homo sapiens, UniProt P00918); experiment: DRUGMATRIX: Carbonic Anhydrase II enzyme inhibition (substrate: 4-Nitrophenyl acetate (4-NPA)); format: tissue-based, Erythrocyte; conditions: erythrocyte; Not Active = under 50% inhibition at 10 µM
Cannabinoid receptor 1 = Cannabinoid receptor 1 (Homo sapiens, UniProt P21554); format: cell membranes, Chem-1, Membrane; conditions: chem-1; note: in other assays of this panel Not Active means under 50% inhibition at 10 µM
Cannabinoid receptor 1, sequence (P21554 whole entry): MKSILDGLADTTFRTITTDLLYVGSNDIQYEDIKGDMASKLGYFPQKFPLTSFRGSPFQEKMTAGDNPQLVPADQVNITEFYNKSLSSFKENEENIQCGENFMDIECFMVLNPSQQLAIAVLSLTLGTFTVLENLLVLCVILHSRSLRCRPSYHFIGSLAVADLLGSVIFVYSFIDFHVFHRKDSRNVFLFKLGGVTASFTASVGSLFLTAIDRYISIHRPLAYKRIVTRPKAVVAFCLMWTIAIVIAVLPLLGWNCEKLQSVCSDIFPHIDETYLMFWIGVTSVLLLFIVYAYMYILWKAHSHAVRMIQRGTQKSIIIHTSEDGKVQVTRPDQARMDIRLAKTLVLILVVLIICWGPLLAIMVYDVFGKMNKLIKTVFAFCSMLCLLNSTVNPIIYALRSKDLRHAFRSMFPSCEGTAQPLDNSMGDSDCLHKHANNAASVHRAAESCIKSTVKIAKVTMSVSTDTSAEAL

Thromboxane-A synthase = target: T2, Thromboxane-A synthase (Homo sapiens, UniProt P24557); experiment: biochemical; format: tissue-based, Platelet; conditions: platelet;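 note: enzyme inhibition assay with PGH2 supplied as substrate; in other assays of this panel Not Active means under 50% inhibition at 10 µM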
T2 sequence (P24557 whole entry): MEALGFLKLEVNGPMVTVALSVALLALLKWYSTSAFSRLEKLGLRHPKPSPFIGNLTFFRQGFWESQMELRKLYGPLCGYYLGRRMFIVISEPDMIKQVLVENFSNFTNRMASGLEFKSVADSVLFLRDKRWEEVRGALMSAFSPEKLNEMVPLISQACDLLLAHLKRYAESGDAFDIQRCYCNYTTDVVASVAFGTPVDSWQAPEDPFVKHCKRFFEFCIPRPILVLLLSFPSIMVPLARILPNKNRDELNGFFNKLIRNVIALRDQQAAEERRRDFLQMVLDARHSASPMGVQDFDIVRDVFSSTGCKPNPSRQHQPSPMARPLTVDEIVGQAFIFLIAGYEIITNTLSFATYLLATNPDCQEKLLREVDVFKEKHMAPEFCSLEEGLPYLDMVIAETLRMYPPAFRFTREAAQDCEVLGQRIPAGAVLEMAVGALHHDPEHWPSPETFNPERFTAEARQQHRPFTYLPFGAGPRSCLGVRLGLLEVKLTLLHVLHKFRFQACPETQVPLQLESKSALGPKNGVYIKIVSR

Beta-3 adrenergic receptor, sequence (P13945 whole entry): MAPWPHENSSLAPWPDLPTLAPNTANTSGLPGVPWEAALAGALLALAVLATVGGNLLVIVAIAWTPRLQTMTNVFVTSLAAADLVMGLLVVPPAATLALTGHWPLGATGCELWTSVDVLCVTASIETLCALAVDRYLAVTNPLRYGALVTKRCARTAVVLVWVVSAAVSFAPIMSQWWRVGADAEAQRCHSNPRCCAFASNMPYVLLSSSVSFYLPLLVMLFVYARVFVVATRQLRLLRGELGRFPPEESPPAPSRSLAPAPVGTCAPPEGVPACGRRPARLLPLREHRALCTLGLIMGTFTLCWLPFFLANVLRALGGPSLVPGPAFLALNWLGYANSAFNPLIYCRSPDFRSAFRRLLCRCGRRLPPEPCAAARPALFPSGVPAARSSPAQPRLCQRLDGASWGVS

C[C@H]1C[C@H]2[C@@H]3CCC4=CC(=O)C=C[C@]4(C)[C@@]3(F)[C@@H](O)C[C@]2(C)[C@@]1(O)C(=O)CO [BETAMETHASONE]
Not Active: IC50 [1] | IC50 [2] | Ki [2] | IC50 [3] | IC50 (Carbonic anhydrase 2) | IC50 (Cannabinoid receptor 1) | IC50 (Thromboxane-A synthase)

CC(C)NCC(O)COc1ccc(CC(N)=O)cc1 (stereo not drawn) [ATENOLOL]
Not Active: IC50 [1] | IC50 [2] | Ki [2] | IC50 [3] | IC50 (Carbonic anhydrase 2) | IC50 (Cannabinoid receptor 1) | IC50 (Thromboxane-A synthase)

O=C1c2ccccc2C(=O)C1c1ccccc1 [PHENINDIONE]
Not Active: IC50 [1] | IC50 [2] | Ki [2] | IC50 [3] | IC50 (Carbonic anhydrase 2) | IC50 (Cannabinoid receptor 1) | IC50 (Thromboxane-A synthase)

CCCCCCNC(=O)n1cc(F)c(=O)[nH]c1=O [CARMOFUR]
Not Active: IC50 [1] | IC50 [2] | Ki [2] | IC50 [3] | IC50 (Carbonic anhydrase 2) | IC50 (Cannabinoid receptor 1) | IC50 (Thromboxane-A synthase)

O=c1[nH]cnc2c1ncn2[C@H]1CC[C@@H](CO)O1 [DIDANOSINE]
Not Active: IC50 [1] | IC50 [2] | Ki [2] | IC50 [3] | IC50 (Carbonic anhydrase 2) | IC50 (Cannabinoid receptor 1) | IC50 (Thromboxane-A synthase)

CC(=O)Nc1ccc2c(c1)Cc1ccccc1-2 [2-ACETYLAMINOFLUORENE]
Not Active: IC50 [1] | IC50 [2] | Ki [2] | IC50 [3] | IC50 (Carbonic anhydrase 2) | IC50 (Cannabinoid receptor 1) | IC50 (Thromboxane-A synthase)

CC(C)(c1ccc(O)cc1)c1ccc(O)cc1 [BISPHENOL A]
Not Active: IC50 [1] | IC50 [2] | Ki [2] | IC50 [3] | IC50 (Carbonic anhydrase 2) | IC50 (Cannabinoid receptor 1) | IC50 (Thromboxane-A synthase)

CO[C@H]1O[C@@H]2O[C@@]3(C)CC[C@H]4[C@H](C)CC[C@@H]([C@H]1C)[C@@]24OO3
Not Active: IC50 [1] | IC50 [2] | Ki [2] | IC50 [3] | IC50 (Carbonic anhydrase 2) | IC50 (Cannabinoid receptor 1) | IC50 (Thromboxane-A synthase)

C#C[C@]1(O)CC[C@H]2[C@@H]3CCC4=CC(=O)CC[C@@H]4[C@H]3CC[C@@]21C [NORETHINDRONE]
Not Active: IC50 [1] | IC50 [2] | Ki [2] | IC50 [3] | IC50 (Carbonic anhydrase 2) | IC50 (Cannabinoid receptor 1) | IC50 (Thromboxane-A synthase)

CN(Cc1cc(Br)cc(Br)c1N)C1CCCCC1 [BROMHEXINE]
Not Active: IC50 [1] | IC50 [2] | Ki [2] | IC50 [3] | IC50 (Carbonic anhydrase 2) | IC50 (Cannabinoid receptor 1) | IC50 (Thromboxane-A synthase)

CC12CCC(CC1=O)C2(C)C (stereo not drawn) [CAMPHOR]
Not Active: IC50 [1] | IC50 [2] | Ki [2] | IC50 [3] | IC50 (Carbonic anhydrase 2) | IC50 (Cannabinoid receptor 1) | IC50 (Thromboxane-A synthase)

C[C@@H]1[C@H](O)[C@@H](C)/C=C/C=C/C=C/C=C/C=C/C=C/C=C/[C@H](O[C@@H]2O[C@H](C)[C@@H](O)[C@H](N)[C@@H]2O)C[C@@H]2O[C@](O)(C[C@@H](O)C[C@@H](O)[C@H](O)CC[C@@H](O)C[C@@H](O)CC(=O)O[C@H]1C)C[C@H](O)[C@H]2C(=O)O [AMPHOTERICIN B]
Not Active: IC50 [1] | IC50 [2] | Ki [2] | IC50 [3] | IC50 (Carbonic anhydrase 2) | IC50 (Cannabinoid receptor 1) | IC50 (Thromboxane-A synthase)

Nc1ccc(Cc2ccc(N)cc2)cc1
Not Active: IC50 [1] | IC50 [2] | Ki [2] | IC50 [3] | IC50 (Carbonic anhydrase 2) | IC50 (Cannabinoid receptor 1) | IC50 (Thromboxane-A synthase)

COc1ccccc1OCCNCC(O)COc1cccc2[nH]c3ccccc3c12 (stereo not drawn) [CARVEDILOL]
Not Active: IC50 [2] | Ki [2] | IC50 [3] | IC50 (Carbonic anhydrase 2) | IC50 (Cannabinoid receptor 1) | IC50 (Thromboxane-A synthase)

NS(=O)(=O)c1cc(C(=O)O)c(NCc2ccco2)cc1Cl [FUROSEMIDE]
Not Active: IC50 [1] | IC50 [2] | Ki [2] | IC50 [3] | IC50 (Cannabinoid receptor 1) | IC50 (Thromboxane-A synthase)
